Measurements from US11725027B2, “Hypersensitive response elicitor-derived peptides and use thereof” (priority 2016, dated 2023).
Marks after values point to notes of the source that are not given here.

Columns and labels:
Assay type in all cases: in vivo
[1] = test system: Nicotiana tabacum cultivar xanthi plants; test: Hypersensitive Response (HR) induction in tobacco leaves; parameters: key to HR: Plants are considered HR-positive (“HR+”) if they exhibit wide-spread macroscopic cell death visible to the naked eye, accompanied by wilting and browning of the affected tissue within 48 hours; Plants are considered HR-negative (“HR−”) if they exhibit no discernible wilting or tissue death observable by naked eye; details: for HR: tobacco leaf infused with 500, 250, 125, 62.5, 31.25 μg/ml peptide solutions, scored over 48 hours; for elicitation of HR, effect of Met to Ala mutations: tobacco
Source text: A property of a peptide to elicit a hypersensitive response, or not, upon infiltration or application of the peptide to plant tissues can be measured by applying the peptide in dry powder form or in solution form to a plant, particularly though not exclusively a plant leaf.
The minimal eliciting sequence derived from was developed based on the sequence of the hrex gene from Xanthomonas campestris pv. pelargonii. A number of truncated and mutated sequences were synthesized and tested for Hypersensitive Response induction (results in Table 4). HR in tobacco was tested as described in Wei, Science 257:85-88 (1992), which is hereby incorporated by reference in its entirety. Briefly, peptides were dissolved at a concentration of 500 μg/ml in aqueous solution. Four serial dilutions were performed with an equal volume of water, yielding peptide samples at 500, 250, 125, 62.5, 31.25 μg/ml peptide solutions. Nicotiana tabacum cultivar xanthi plants were used at 5-7 weeks old (preflowering). Leaves were lightly punctured with a toothpick in a middle leaf panel. Peptide solutions were then infused via needle-less syringe into the wound, filling the panel. Each peptide sample was infused into a leaf of 2 different plants. The leaves were observed and scored over the next 48 hours for withering and browning, lesions typical of programmed cell death. These studies had […] main goals: (1) determine the minimal sequence sufficient for HR elicitation (2) increase the solution stability of the peptides; (3) make disruptive mutations to verify the residues which are most important for HR elicitation; (4) make conservative mutations to identify the degree of specificity for particular amino acids.

soy = test: Drought resistance in soy (greenhouse, spray); details: soy under cyclic drought
Protocol: The effectiveness of peptide treatment in reducing drought stress was assessed in soy. 3.5 inch pots were filled with Sunshine #1 soil (SunGro Horticulture), fertilized with a 20-10-20 mixture. The soil was soaked and drained overnight. Seeds (soy, manually inspected to ensure uniform seed size) were planted at a depth of half inch for germination. Plants were grown in a greenhouse under 16 hour light days at >70° F. and 8 hour dark nights at >65° F. Prior to drought conditions, the plants were well-watered.
When the plants reached the growth stage when first trifoliate expanded, plants were culled to achieve a uniform height (abnormally large and small plants were removed). Plants were then randomly assigned to control (spray without peptide) or treatment (spray with peptide) groups and heights were measured. Peptide was made up in a solution of 0.2 ug/ml or 2 ug/ml in distilled water+0.04% Tween-20, and applied as a fine mist from a spray bottle until the solution drips from the leaves. After the peptide solutions were dried, the plants were again randomized in a randomized complete block design. Cyclic drought stress was initiated after the peptide treatment. Plants were subjected to at least three drought cycles of drought stress (3-5 days of withholding water and 1 day irrigated with saturating amount of water) before harvesting.
The drought test phase ended after 2-3 weeks. At that time, the plant height was again measured and the growth rate was calculated as the difference between this and the previously-recorded height. The above-ground part portions of the plants were harvested and weighed to obtain fresh weight. The above-ground portion was also dried in an oven at 70° C. for 72 hours to obtain dry weight. All calculations were compared with matched untreated control plants.

[2] = test system: tobacco mosaic virus (TMV); test: Induction of resistance to tobacco mosaic virus in tobacco; details: % decline in TMV lesions vs UTC, spray 20 ug/ml; for Effectiveness Covered (%): covered leaf (systemic response); for Effectiveness Uncovered (%): uncovered leaf (local response)
Protocol: Peptides were tested for the induction of resistance to tobacco mosaic virus (TMV) in tobacco. Briefly, three tobacco plants at 6-8 weeks old were selected per group (samples and controls). The bottom-most leaf of the plant was covered and the plant was sprayed with a solution of water (untreated control—UTC), peptide, or Proact (positive control). The spray was applied until the leaves were fully wetted, indicated by liquid dripping from the leaves. The plants were then allowed to dry and the leaf covering was removed.
Three days post-treatment, the previously-covered leaf and a leaf on the opposite side of the plant were then lightly dusted with diatomaceous earth and 20 ul of a 1.7 ug/ml solution of purified tobacco mosaic virus was applied. The TMV solution was then spread across the leaf surface by lightly rubbing solution and the diatomaceous earth across the surface of the leaves. Two minutes after inoculation, the diatomaceous earth was rinsed off the leaves with water. 3 days after TMV inoculation, the leaves were scored based on the number of TMV lesions observed. The leaf was also scored for signs of the hypersensitive response, including yellowing and wilting of the affected leaves.
Effectiveness described in Table 6 refers to the % decline in TMV lesions on treated vs UTC plants. A reduction of TMV on covered leaves indicates a systemic immune response in the plant while reduction on uncovered leaves indicates a local response. Asterisks indicate that the P-value derived from a T-test was <0.05.

| Sequence | HR [1] | further results |
| --- | --- | --- |
| AEQGSSQLDLLLMFIMMMLQQ [Peptide P5-74] | + |  |
| ITPDGQGGGQIGDNPQLDLLLAFIAAALQQ [Peptide P5-80] | Weak+ |  |
| ITPDGQGGGQIGDNPQLDLLLMFIMMMLQQ [Peptide P5-79] | Strong+ |  |
| LDLLLAFIEEELEEEE [Peptide P5-10] | - |  |
| NFGTPDSTVQNPQDASKPNQLDLLLAFIAAALQQ [Peptide P5-78] | Weak+ |  |
| NFGTPDSTVQNPQDASKPNQLDLLLMFIMMMLQQ [Peptide P5-77] | Weak+ |  |
| NQGISEKQQLDLLLMFIMMMLQQ [Peptide P5-75] | Strong+ | Dry Weight Increase (%) (soy; 0.2 ug/ml): 3.73%; Fresh Weight Increase (%) (soy; 0.2 ug/ml): 8.78** %; Dry Weight Increase (%) (soy; 2.0 ug/ml): 4.37%; Fresh Weight Increase (%) (soy; 2.0 ug/ml): 8.55** % |
| SAGSEQQEDELLAFIAAALQQ [Peptide P5-51] | - |  |
| SAGSEQQEDELLMFIMMMLQQ [Peptide P5-52] | - |  |
| SAGSEQQEDLLLAFIAAALQQ [Peptide P5-49] | - |  |
| SAGSEQQEDLLLAFIALQQ [Peptide P5-61] | - |  |
| SAGSEQQEDQLLLMFIMMMLQQ [Peptide P5-53] | - |  |
| SAGSEQQLDELLAFIAAALQQ [Peptide P5-50] | Weak+ |  |
| SAGSEQQLDELLAFIAAALQQ [Peptide P5-72] | - |  |
| SAGSEQQLDELLAFIALQQ [Peptide P5-62] | - |  |
| SAGSEQQLDELLMFIMMMLQQ [Peptide P5-36] | + |  |
| SAGSEQQLDLELMFIMMMLQQ [Peptide P5-37] | - |  |
| SAGSEQQLDLLEMFIMMMLQQ [Peptide P5-38] | - |  |
| SAGSEQQLDLLLAEIAAALQQ [Peptide P5-69] | - |  |
| SAGSEQQLDLLLAEIALQQ [Peptide P5-64] | - |  |
| SAGSEQQLDLLLAFIAAAL [Peptide P5-6] | - | Effectiveness Covered (%) [2]: 36%; Effectiveness Uncovered (%) [2]: 62% |
| SAGSEQQLDLLLAFIAAALQQ [Peptide P5-3] | + | elicitation of HR, effect of Met to Ala mutations [1]: do not affect the elicitation of HR; Effectiveness Covered (%) [2]: 70* %; Effectiveness Uncovered (%) [2]: 55% |
| SAGSEQQLDLLLAFIAAELQQ [Peptide P5-68] | - |  |
| SAGSEQQLDLLLAFIAEALQQ [Peptide P5-66] | Weak+ |  |

| Sequence | HR [1] | further results |
| --- | --- | --- |
| SAGSEQQLDLLLAFIEAALQQ [Peptide P5-67] | - |  |
| SAGSEQQLDLLLAFIEALQQ [Peptide P5-65] | - |  |
| SAGSEQQLDLLLEFIAAALQQ [Peptide P5-70] | - |  |
| SAGSEQQLDLLLEFIALQQ [Peptide P5-63] | - |  |
| SAGSEQQLDLLLEFIMMMLQQ [Peptide P5-39] | Strong+ |  |
| SAGSEQQLDLLLMEIMMMLQQ [Peptide P5-40] | Strong+ |  |
| SAGSEQQLDLLLMFEMMMLQQ [Peptide P5-41] | - |  |
| SAGSEQQLDLLLMFIAAALQQ [Peptide P5-2] | + | elicitation of HR, effect of Met to Ala mutations [1]: do not affect the elicitation of HR; Effectiveness Covered (%) [2]: 90* %; Effectiveness Uncovered (%) [2]: 25% |
| SAGSEQQLDLLLMFIEMMLQQ [Peptide P5-42] | Weak+ |  |
| SAGSEQQLDLLLMFIMEMLQQ [Peptide P5-43] | Strong+ |  |
| SAGSEQQLDLLLMFIMMELQQ [Peptide P5-44] | Weak+ |  |
| SAGSEQQLDLLLMFIMMMEQQ [Peptide P5-45] | - |  |
| SAGSEQQLDQELLMFIMMMLQQ [Peptide P5-54] | - |  |
| SAGSEQQLDQLLLAFIAAALQQ [Peptide P5-55] | - |  |
| SAGSEQQLDQLLLMFIMMMLQQ [Peptide P5a] | + |  |
| SAGSEQQLELLLAFIAAALQQ [Peptide P5-4] | + | Effectiveness Covered (%) [2]: 98* %; Effectiveness Uncovered (%) [2]: 97* % |
| SEEEEELDLLLAFIAAAL [Peptide P5-7] | - | Effectiveness Covered (%) [2]: 91* %; Effectiveness Uncovered (%) [2]: 71% |
| SEEEEELDLLLAFIAAALA [Peptide P5-17] | - |  |
| SEEEEELDLLLAFIAAALE [Peptide P5-18] | - |  |
| SEEEEELDLLLAFIAAALGG [Peptide P5-14] | Weak+ |  |
| SEEEEELDLLLAFIAAALQ [Peptide P5-15] | - |  |
| SEEEEELDLLLAFIAAALQQ [Peptide P5-8] | Weak+ | Effectiveness Covered (%) [2]: 99* %; Effectiveness Uncovered (%) [2]: 99* % |
| SEEEEELDLLLAFIAAALS [Peptide P5-16] | - |  |
| SEEEEELDQLLLAFIAAAL [Peptide P5-24] | - |  |

| Sequence | HR [1] | further results |
| --- | --- | --- |
| SEEEEELDQLLLAFIAAALQQ [Peptide P5-23] | Weak+ |  |
| SEEELDLLLAFIAAALDD [Peptide P5-13] | - |  |
| SEEELDLLLAFIAAALEE [Peptide P5-11] | - |  |
| SEEELDLLLAFIEEELEE [Peptide P5-12] | - |  |
| SEEELDLLLMFIMMMLEE [Peptide P5-29] | + |  |
| SEEELDQLLLMFIMMMLEE [Peptide P5-30] | + |  |
| SEEELELLLAFIAAALEEEE [Peptide P5-22] | + | Effectiveness Covered (%) [2]: 62%; Effectiveness Uncovered (%) [2]: 82% |
| SEEEQLDLLLMFIMMMLEE [Peptide P5-31] | + |  |
| SEEEQLDLLLMFIMMMLQEE [Peptide P5-33] | + | Dry Weight Increase (%) (soy; 2.0 ug/ml): 5.02** %; Fresh Weight Increase (%) (soy; 2.0 ug/ml): 4.10% |
| SEEEQLDQLLLMFIMMMLEE [Peptide P5-32] | + |  |
| SEEEQLDQLLLMFIMMMLQEE [Peptide P5-34] | + |  |
| SEEQEEELLAFIAAALQQEE [Peptide P5-58] | - |  |
| SEEQEELLLAFIAAALQQEE [Peptide P5-56] | - |  |
| SEEQLDLLLAFIAAALQEE [Peptide P5-26] | + |  |
| SEEQLDLLLAFIAAALQQEE [Peptide P5-87] | - |  |
| SEEQLDLLLEFIEEELQQEE [Peptide P5-48] | - |  |
| SEEQLDLLLMFIMMMLQQEE [Peptide P5-47] | + | Effectiveness Covered (%) [2]: 78* %; Effectiveness Uncovered (%) [2]: 87* % |
| SEEQLDQLLLAFIAAALEE [Peptide P5-28] | Weak+ |  |
| SEEQLEELLAFIAAALQQEE [Peptide P5-57] | + |  |
| SEEQLELLLAFIAAALQEE [Peptide P5-88] | + |  |
| SELELLLAFIAAALEEEEE [Peptide P5-19] | + |  |
| SELELLLEFIEEELEE [Peptide P5-20] | - |  |
| SQAGSEQLDLLLMFIMMMLQQ [Peptide P5-73] | + |  |
